{"source": "patent US11981643B1", "about": "“Oxoimidazolidine derivatives as anti-tubercular agents” (priority 2023, dated 2024)", "key": {"[1]": {"test_system": "Mycobacterium tuberculosis H37Rv", "test": "Resazurin Microplate Assay (REMA), anti-tubercular activity, H37Rv strain", "format": "cell-based", "details": "192 h, read-out: Anti-tubercular activity against Mycobacterium tuberculosis, H37Rv (minimum inhibitory concentration, MIC)"}, "[2]": {"details": "H37Rv strain, ATCC: 25177, REMA, 8 days incubation at 37° C."}}, "note": "Where two headings read alike, the source gives them in different places."}
{"smiles": "CN1/C(=C\\c2ccc([N+](=O)[O-])cc2)C(=O)N/C1=N\\C(=O)Nc1ccccc1F", "values": [{"measurement": "melting point", "value": "150 to 152", "unit": "°C"}]}
{"smiles": "Cc1ccc(/C=C2/C(=O)N/C(=N\\C(=O)Nc3ccccc3F)N2C)o1", "values": [{"measurement": "melting point", "value": "196 to 198", "unit": "°C"}]}
{"smiles": "CN1/C(=C\\c2ccc([N+](=O)[O-])cc2)C(=O)N/C1=N\\C(=O)Nc1cccc(F)c1", "values": [{"measurement": "melting point", "value": "144 to 146", "unit": "°C"}]}
{"smiles": "Cc1ccc(/C=C2/C(=O)N/C(=N\\C(=O)Nc3cccc(F)c3)N2C)o1", "values": [{"measurement": "melting point", "value": "188 to 190", "unit": "°C"}]}
{"smiles": "CN1/C(=C\\c2ccc([N+](=O)[O-])cc2)C(=O)N/C1=N\\C(=O)Nc1ccc(F)cc1", "values": [{"measurement": "melting point", "value": "156 to 158", "unit": "°C"}]}
{"smiles": "Cc1ccc(/C=C2/C(=O)N/C(=N\\C(=O)Nc3ccc(F)cc3)N2C)o1", "values": [{"measurement": "melting point", "value": "186 to 188", "unit": "°C"}]}
{"smiles": "CN1/C(=C\\c2ccc(Br)o2)C(=O)N/C1=N\\C(=O)Nc1ccc(Cl)cc1Cl", "values": [{"measurement": "melting point", "value": "198 to 200", "unit": "°C"}]}
{"smiles": "CN1/C(=C\\c2ccc(-c3ccccc3[N+](=O)[O-])o2)C(=O)N/C1=N\\C(=O)Nc1ccc(Cl)cc1Cl", "values": [{"measurement": "melting point", "value": "206 to 208", "unit": "°C"}]}
{"smiles": "Cc1ccc(/C=C2/C(=O)N/C(=N\\C(=S)Nc3cccc(Cl)c3)N2C)o1", "values": [{"measurement": "melting point", "value": "158 to 160", "unit": "°C"}]}
{"smiles": "CN1/C(=C\\c2ccc(Br)o2)C(=O)N/C1=N\\C(=S)Nc1cccc(Cl)c1", "values": [{"measurement": "melting point", "value": "140 to 142", "unit": "°C"}]}
{"smiles": "Cc1ccc(/C=C2/C(=O)N/C(=N\\C(=S)Nc3ccc(F)cc3)N2C)o1", "values": [{"measurement": "melting point", "value": "146 to 148", "unit": "°C"}]}
{"smiles": "CN1C(=Cc2ccc([N+](=O)[O-])cc2)C(=O)N/C1=N\\C(=S)Nc1cccc(Cl)c1", "note": "(stereo in doubt) [Compound 4q, 1-(3-Chlorophenyl)-3-[(2E,5Z)-1-methyl-5-(4-nitrobenzylidene)-4-oxoimidazolidin-2-ylidene]thiourea]", "values": [{"measurement": "MIC", "setting": "[1]; [2]", "value": 8, "unit": "µg/mL"}, {"measurement": "melting point", "value": "166 to 168", "unit": "°C"}]}
{"smiles": "CN1C(=Cc2ccc(-c3ccccc3[N+](=O)[O-])o2)C(=O)N/C1=N\\C(=S)Nc1ccc(F)cc1", "note": "(stereo in doubt) [Compound 4v, 1-(4-Fluorophenyl)-3-[(2E,5Z)-1-methyl-5-{[5-(2-nitrophenyl)furan-2-yl]methylidene}-4-oxoimidazolidin-2-ylidene]thiourea]", "values": [{"measurement": "MIC", "setting": "[1]; [2]", "value": 16, "unit": "µg/mL"}, {"measurement": "melting point", "value": "158 to 160", "unit": "°C"}]}
{"smiles": "CN1/C(=C\\c2ccc(Br)o2)C(=O)N/C1=N\\C(=O)Nc1cccc(F)c1", "note": "[Compound 4g, 1-{(2E,5Z)-5-[(5-Bromofuran-2-yl)methylidene]-1-methyl-4-oxoimidazolidin-2-ylidene}-3-(3-fluorophenyl)urea]", "values": [{"measurement": "MIC", "setting": "[1]; H37RV", "value": 8, "unit": "µg/mL"}, {"measurement": "melting point", "value": "196 to 198", "unit": "°C"}]}
